According to PubChem BioAssay AID248 (DTP/NCI, 2004):
Toxic doses and inconclusive results are not listed. Rule as the data show it: active = T/C of 150% or more; inactive = T/C below 125%.

Tested on: L1210 leukemia ip in BDF1 mice, survival T/C
Assay: NCI In Vivo Anticancer Drug Screen. Data for tumor model L1210 Leukemia (intraperitoneal) in B6D2F1 (BDF1) mice
Settings: endpoint: mean survival time, higher = longer survival
Summary of the method: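 In this screen, tumor-bearing mice given compound are compared to those given vehicle, and their survival values are reported as a treated-to-control quotient.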

[1] = dose: 50.0 mg/kg/injection, schedule: Q01DX001 (ip), vehicle: saline
[2] = dose: 100.0 mg/kg/injection, schedule: Q01DX001 (ip), vehicle: saline
[3] = dose: 200.0 mg/kg/injection, schedule: Q01DX001 (ip), vehicle: saline
[4] = dose: 400.0 mg/kg/injection, schedule: Q01DX001 (ip), vehicle: saline
[5] = dose: 100.0 mg/kg/injection, schedule: Q01DX009 (ip), vehicle: Klucel (hydroxypropylcellulose) (HPC)
[6] = dose: 200.0 mg/kg/injection, schedule: Q01DX009 (ip), vehicle: Klucel (hydroxypropylcellulose) (HPC)
[7] = dose: 400.0 mg/kg/injection, schedule: Q01DX009 (ip), vehicle: Klucel (hydroxypropylcellulose) (HPC)
[8] = dose: 100.0 mg/kg/injection, schedule: Q04DX003 (ip), vehicle: saline with Tween-80
[9] = dose: 200.0 mg/kg/injection, schedule: Q04DX003 (ip), vehicle: saline with Tween-80
[10] = dose: 400.0 mg/kg/injection, schedule: Q04DX003 (ip), vehicle: saline with Tween-80
[11] = dose: 100.0 mg/kg/injection, schedule: Q01DX009 (ip), vehicle: saline with Tween-80
[12] = dose: 200.0 mg/kg/injection, schedule: Q01DX009 (ip), vehicle: saline with Tween-80
[13] = dose: 400.0 mg/kg/injection, schedule: Q01DX009 (ip), vehicle: saline with Tween-80
[14] = dose: 100.0 mg/kg/injection, schedule: Q04DX002 (ip), vehicle: Klucel (hydroxypropylcellulose) (HPC)
[15] = dose: 200.0 mg/kg/injection, schedule: Q04DX002 (ip), vehicle: Klucel (hydroxypropylcellulose) (HPC)
[16] = dose: 400.0 mg/kg/injection, schedule: Q04DX002 (ip), vehicle: Klucel (hydroxypropylcellulose) (HPC)
[17] = dose: 100.0 mg/kg/injection, schedule: Q04DX002 (ip), vehicle: saline with Tween-80
[18] = dose: 200.0 mg/kg/injection, schedule: Q04DX002 (ip), vehicle: saline with Tween-80

Measured: T/C

CSc1cccc(C(=O)O)c1
inactive: dose: 100.0 mg/kg/injection, schedule: Q01DX001 (ip), vehicle: Klucel (hydroxypropylcellulose) (HPC) 102 % of control | dose: 200.0 mg/kg/injection, schedule: Q01DX001 (ip), vehicle: Klucel (hydroxypropylcellulose) (HPC) 102 % of control | dose: 400.0 mg/kg/injection, schedule: Q01DX001 (ip), vehicle: Klucel (hydroxypropylcellulose) (HPC) 94 % of control

NC(=O)n1cnc(N)n1
inactive: [1] 98 % of control | [2] 98 % of control | [3] 104 % of control | [4] 107 % of control

Cc1nnc2[nH]c(=O)[nH]c(=O)c2n1
inactive: [1] 98 % of control | [2] 104 % of control | [3] 101 % of control | [4] 98 % of control

CCc1ccc(/C(C#N)=C/c2ccc(OC)cc2)cc1
inactive: [5] 92 % of control | [6] 94 % of control | [7] 92 % of control

O=C1OC(c2cccc3c(F)cccc23)c2ccccc21 (centres undefined)
inactive: [5] 96 % of control | [6] 95 % of control | [7] 93 % of control

CCCCCC(CN(C)C)C(/C=C/c1ccccc1Cl)OC(=O)c1ccc([N+](=O)[O-])cc1 (centres undefined)
inactive: [8] 95 % of control | [9] 92 % of control | [10] 92 % of control

CN(C)C(=O)Nc1ccc(Cc2ccc(NC(=O)N(C)C)cc2)cc1
inactive: [5] 96 % of control | [6] 92 % of control | [7] 96 % of control

N#C/C(=C/C=C/c1ccccc1)c1cccc([N+](=O)[O-])c1
inactive: [11] 108 % of control | [12] 91 % of control | [13] 100 % of control

C[N+](C)(C)C1(Cc2ccccc2)c2ccccc2-c2ccccc21
inactive: dose: 25.0 mg/kg/injection, schedule: Q01DX009 (ip), vehicle: saline 93 % of control | dose: 25.0 mg/kg/injection, schedule: Q04DX003 (ip), vehicle: saline 96 % of control | dose: 50.0 mg/kg/injection, schedule: Q01DX009 (ip), vehicle: saline 114 % of control | dose: 50.0 mg/kg/injection, schedule: Q04DX003 (ip), vehicle: saline 99 % of control | [8] 97 % of control | dose: 100.0 mg/kg/injection, schedule: Q04DX003 (ip), vehicle: saline 86 % of control

CCCCCCCCCCCCC(O)(CC)C(=O)O (centres undefined)
inactive: [14] 98 % of control | [15] 91 % of control | [16] 91 % of control

OC(COc1ccccc1)CC(O)(C(F)(F)F)C(F)(F)F (centres undefined)
inactive: dose: 75.0 mg/kg/injection, schedule: Q01DX009 (ip), vehicle: saline with Tween-80 92 % of control | dose: 150.0 mg/kg/injection, schedule: Q01DX009 (ip), vehicle: saline with Tween-80 89 % of control | dose: 300.0 mg/kg/injection, schedule: Q01DX009 (ip), vehicle: saline with Tween-80 103 % of control

CNS(=O)(=O)c1ccccc1C(C)(O)c1ccccc1 (centres undefined)
inactive: [2] 97 % of control | [3] 103 % of control | [4] 97 % of control

Cc1ccc(CNC(=O)NC(C)(C)C)cc1
inactive: [5] 93 % of control | [6] 101 % of control | [7] 90 % of control

CCCCn1c(=S)sc2ccccc21
inactive: [14] 94 % of control | [15] 109 % of control | [16] 88 % of control

O=c1cc(Cc2ccccc2)[nH]c(=S)[nH]1
inactive: [11] 94 % of control | [8] 99 % of control | [12] 93 % of control | [9] 97 % of control | [13] 96 % of control | [10] 100 % of control

CC1(C)N=C(N)N=C(N)N1c1ccc(CCCC(=O)Nc2ccc(S(=O)(=O)F)cc2)cc1
inactive: dose: 0.8 mg/kg/injection, schedule: Q01DX009 (ip), vehicle: saline 97 % of control | dose: 4.0 mg/kg/injection, schedule: Q01DX009 (ip), vehicle: saline 98 % of control | dose: 20.0 mg/kg/injection, schedule: Q01DX009 (ip), vehicle: saline 104 % of control | dose: 100.0 mg/kg/injection, schedule: Q01DX009 (ip), vehicle: saline 114 % of control | dose: 500.0 mg/kg/injection, schedule: Q01DX009 (ip), vehicle: saline 123 % of control

CCC1(CCCCCBr)OCCO1
inactive: [14] 101 % of control | [15] 108 % of control | [16] 104 % of control

CCCCCCCCCC(=O)N/N=C\c1cccc2ccccc12
inactive: dose: 25.0 mg/kg/injection, schedule: Q01DX009 (ip), vehicle: Klucel (hydroxypropylcellulose) (HPC) 90 % of control | dose: 50.0 mg/kg/injection, schedule: Q01DX009 (ip), vehicle: Klucel (hydroxypropylcellulose) (HPC) 103 % of control | [5] 87 % of control

COC1OC(COC(=O)c2ccccc2)C(OC(=O)Nc2ccccc2)C1O (centres undefined)
inactive: [11] 90 % of control | [8] 93 % of control | [12] 100 % of control | [9] 98 % of control | [13] 95 % of control | [10] 92 % of control

c1ccc2cc(Nc3ccc4ccccc4c3)ccc2c1
inactive: [11] 106 % of control | [12] 108 % of control | [13] 101 % of control

CN1CCc2ccc(Oc3cccc4c3CCN(C)C4)cc2C1
inactive: dose: 75.0 mg/kg/injection, schedule: Q01DX001 (ip), vehicle: other 112 % of control | dose: 150.0 mg/kg/injection, schedule: Q01DX001 (ip), vehicle: other 92 % of control

COC(=O)c1ccc(=O)oc1
inactive: dose: 50.0 mg/kg/injection, schedule: Q01DX009 (ip), vehicle: gum acacia 105 % of control | dose: 100.0 mg/kg/injection, schedule: Q01DX009 (ip), vehicle: gum acacia 100 % of control | dose: 100.0 mg/kg/injection, schedule: Q04DX003 (ip), vehicle: gum acacia 98 % of control | dose: 200.0 mg/kg/injection, schedule: Q01DX009 (ip), vehicle: gum acacia 88 % of control | dose: 200.0 mg/kg/injection, schedule: Q04DX003 (ip), vehicle: gum acacia 100 % of control

NC1NC(=O)C(CCCOc2ccc([N+](=O)[O-])cc2)C(c2ccccc2)N1 (centres undefined)
inactive: [5] 91 % of control | [6] 110 % of control | [7] 89 % of control

Nc1ccc(CCc2ccc(N)cc2[N+](=O)[O-])c([N+](=O)[O-])c1
inactive: [5] 101 % of control | dose: 100.0 mg/kg/injection, schedule: Q04DX003 (ip), vehicle: Klucel (hydroxypropylcellulose) (HPC) 96 % of control | [6] 101 % of control | dose: 200.0 mg/kg/injection, schedule: Q04DX003 (ip), vehicle: Klucel (hydroxypropylcellulose) (HPC) 109 % of control | [7] 92 % of control | dose: 400.0 mg/kg/injection, schedule: Q04DX003 (ip), vehicle: Klucel (hydroxypropylcellulose) (HPC) 90 % of control

O=C(Nc1ccc(CCO)cc1)c1ccc(F)cc1
inactive: [11] 102 % of control | [12] 93 % of control | [13] 93 % of control

CCCCCCCCCC(=O)Nc1cccc(C)c1C
inactive: [14] 105 % of control | [15] 94 % of control | [16] 94 % of control

CC(=O)NCCCCCCCCCCNC(C)=O
inactive: dose: 10.0 mg/kg/injection, schedule: Q01DX Z (ip), vehicle: saline 91 % of control | dose: 30.0 mg/kg/injection, schedule: Q01DX Z (ip), vehicle: saline 95 % of control | dose: 100.0 mg/kg/injection, schedule: Q01DX Z (ip), vehicle: saline 95 % of control | dose: 300.0 mg/kg/injection, schedule: Q01DX Z (ip), vehicle: saline 98 % of control

COc1cccc2c1C(=O)c1c(OC)c(CO)cc(OC)c1C2=O
inactive: dose: 12.5 mg/kg/injection, schedule: Q01DX009 (ip), vehicle: water 93 % of control | dose: 25.0 mg/kg/injection, schedule: Q01DX009 (ip), vehicle: water 91 % of control | dose: 50.0 mg/kg/injection, schedule: Q01DX009 (ip), vehicle: water 87 % of control | dose: 100.0 mg/kg/injection, schedule: Q01DX009 (ip), vehicle: water 97 % of control | dose: 200.0 mg/kg/injection, schedule: Q01DX009 (ip), vehicle: water 95 % of control

CCCCCC#CC(=O)OC(C)C
inactive: [17] 102 % of control | [18] 102 % of control | dose: 400.0 mg/kg/injection, schedule: Q04DX002 (ip), vehicle: saline with Tween-80 102 % of control

CCOc1nc(N)nc(N)c1-c1ccc(Cl)cc1
inactive: [17] 92 % of control | [18] 96 % of control
